From patent US5808139A (Ligand Pharmaceuticals Incorporated, priority 1994, dated 1998)
Like-named read-outs stand apart in the source and are kept apart here.

Columns and labels:
[1] = target: T1, human progesterone receptor (Homo sapiens, UniProt P06401); experiment: Co-transfection (cis-trans) assay in CV-1 cells, agonist and antagonist mode; type: cell-based; parameters: expressed in transfected cells; host or cells: CV-1 cells (calcium phosphate transfection), whole cell extract; conditions: antagonist mode with 10^-8 M progesterone
T1 sequence (P06401 1-933): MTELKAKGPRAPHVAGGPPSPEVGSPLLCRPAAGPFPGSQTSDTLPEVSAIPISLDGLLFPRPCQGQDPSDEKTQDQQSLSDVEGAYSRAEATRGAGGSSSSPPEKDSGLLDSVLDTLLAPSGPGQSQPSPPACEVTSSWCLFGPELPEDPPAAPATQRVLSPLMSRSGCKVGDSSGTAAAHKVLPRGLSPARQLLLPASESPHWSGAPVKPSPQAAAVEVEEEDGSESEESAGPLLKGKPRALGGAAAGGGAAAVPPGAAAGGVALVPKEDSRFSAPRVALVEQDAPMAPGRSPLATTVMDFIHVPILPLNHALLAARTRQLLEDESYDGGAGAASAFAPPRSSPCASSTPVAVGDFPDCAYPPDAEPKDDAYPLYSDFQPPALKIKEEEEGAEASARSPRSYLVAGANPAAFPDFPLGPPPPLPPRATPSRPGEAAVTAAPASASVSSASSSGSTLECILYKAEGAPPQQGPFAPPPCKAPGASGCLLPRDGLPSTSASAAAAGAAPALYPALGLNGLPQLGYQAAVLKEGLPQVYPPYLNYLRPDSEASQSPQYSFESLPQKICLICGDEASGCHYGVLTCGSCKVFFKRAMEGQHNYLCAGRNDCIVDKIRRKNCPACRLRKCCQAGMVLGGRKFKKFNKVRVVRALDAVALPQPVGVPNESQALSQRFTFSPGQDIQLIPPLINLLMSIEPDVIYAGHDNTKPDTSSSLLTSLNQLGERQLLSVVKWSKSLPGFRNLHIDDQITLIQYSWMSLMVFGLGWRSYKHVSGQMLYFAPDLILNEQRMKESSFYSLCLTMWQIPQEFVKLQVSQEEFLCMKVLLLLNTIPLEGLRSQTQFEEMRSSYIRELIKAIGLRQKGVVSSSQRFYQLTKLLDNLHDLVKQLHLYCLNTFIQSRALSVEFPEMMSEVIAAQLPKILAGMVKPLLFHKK
Source text: This assay is described in further detail in U.S. Pat. Nos. 4,981,784 and 5,071,773, which are incorporated herein by reference. The co-transfection assay provides a method for identifying functional ligands (either agonists which mimic, or antagonists which inhibit, the effect of hormones) for ligand-responsive receptor proteins.
The co-transfection assay provides a mechanism to evaluate ability of a compound to function as an agonist or antagonist of the activity modulated by an intracellular receptor. The co-transfection assay mimics an in vivo system in the laboratory. In the co-transfection assay, a cloned gene for an intracellular receptor is introduced by transfection (a procedure to induce cells to take up foreign genes) into a background cell substantially devoid of endogenous intracellular receptors. This introduced gene directs the recipient cells to make the intracellular receptor protein. A second gene is also introduced (co-transfected) into the same cells in conjunction with the intracellular receptor gene. This second gene functions as a reporter for the transcription-modulating activity of the target intracellular receptor. The reporter acts as a surrogate for the products normally expressed by a gene under control of the target receptor and its natural hormone.
A preferred reporter gene is one which expresses the firefly enzyme luciferase. The co-transfection assay can detect small molecule agonists or antagonists of target intracellular receptors. Exposing the cells to an agonist ligand increases reporter activity in the transfected cells that can be conveniently measured, reflecting ligand-dependent, intracellular receptor-mediated increases in reporter transcription. To detect antagonists, the co-transfection assay is carried out in the presence of a constant concentration of an agonist known to induce a defined reporter signal. Increasing concentrations of a test antagonist will decrease the reporter signal. The co-transfection assay is therefore useful to detect both agonists and antagonists of specific intracellular receptors. It determines not only whether a compound interacts with a particular intracellular receptor, but also whether this interaction mimics (agonizes) or blocks (antagonizes) the effects of the natural regulatory molecules on target gene expression.
Co-transfected cells are exposed to a medium to which is added the potential ligand that is being evaluated. If the candidate ligand diffuses into the cell and binds to the receptor and the resulting complex functions as an agonist, it binds to the co-transfected reporter gene and initiates transcription. When that gene is one that expresses, for example, luciferase, luciferase is produced which catalyzes a light-emitting reaction with its substrate luciferin. Thus, after cell lysis and the introduction of luciferin, the amount of light produced relative to the concentration of candidate ligand used in the assay provides a measure of the potency and efficacy of the compound tested. Antagonist activity is evaluated by adding the candidate ligand and a known agonist to the co-transfected cells.
The receptor cDNA was introduced in a mammalian expression vector under the control of the Rous Sarcoma virus LTR. […] A reporter vector was also transfected, containing a firefly luciferase gene under the control of the hormone-responsive promoter. […] The level of luciferase activity was then measured in cell extracts. Light emission is directly proportional to the effectiveness of the hormone-receptor complex in activating gene expression.
A total of three replicates per concentration point were tested for each compound, and the EC50 was calculated for each positive response. Both agonist and antagonist activity for each test compound was determined in parallel.

[2] = target: T1, human progesterone receptor; experiment: Progesterone receptor binding (displacement of 3H-progesterone, whole cell extract of transfected CV-1 cells); parameters: expressed in transfected cells; host or cells: CV-1 cells (calcium phosphate transfection), whole cell extract; conditions: for Displacement of 3H-progesterone from its ligand binding site: 5 nM tritiated progesterone, 0-2.5×10^-5 M compound, 4° C., 24 hours
[3] = target: T1, human progesterone receptor; experiment: Displacement of 3H-R5020 from progesterone receptor; conditions: FIG. 7c
[4] = tested on: human progesterone receptor altered at the Tau-1 location; experiment: Co-transfection assay in CV-1 cells, progesterone receptor altered at Tau-1, antagonist activity; type: cell-based
Method in brief: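 CV-1 cells co-transfected with RSV-LTR-driven human PR (altered at Tau-1) and a hormone-responsive luciferase reporter; antagonism measured against a fixed agonist concentration. Luciferase in cell extracts read, triplicate points, potency from concentration-response; […].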

Competition with 3H-R5020 [3] | Kd [2] | IC50 ([4]; concentration required to reduce the maximal response by 50%, read-out: Potency (IC50), CV-1 cells) | IC50 ([4]; read-out: Potency (IC50), CV-1 cells, concentration required to reduce the maximal response by 50%) | SMILES | Progesterone receptor agonist/antagonist activity [1] | Displacement of 3H-progesterone from its ligand binding site [2] | Progesterone receptor agonist/antagonist activity ([1]; listed as 3R diastereomer of cyclocymopol monomethyl ether) | Progesterone receptor agonist/antagonist activity ([1]; listed as SO-9) | Apparent Bmax of 3H-progesterone ([2]; in the presence of compound, FIG. 8) | Efficacy (% maximal response relative to RU-486), CV-1 cells ([4]; antagonist activity, relative to RU-486)
 |  |  |  | C=C1CC[C@@H](Br)C(C)(C)[C@@H]1Cc1cc(OC)c(Br)cc1OC(C)=O [SO-52] | progesterone receptor antagonist activity | displaced ^3 H-progesterone from its ligand binding site in a concentration-dependent manner |  |  |  | 
did not compete for this binding site | 450 nM | 965 nM |  | C=C1CC[C@@H](Br)C(C)(C)[C@@H]1Cc1cc(OC)c(Br)cc1O [SO-53, (3R)-cyclocymopol monomethyl ether] | progesterone receptor antagonist activity | displaced ^3 H-progesterone from its ligand binding site in a concentration-dependent manner | progesterone receptor antagonist activity | progesterone receptor antagonist activity | significantly increased the apparent Bmax | 85%
competitive antagonist of R5020 |  |  | 0.1 nM | CC#C[C@]1(O)CC[C@H]2[C@@H]3CCC4=CC(=O)CCC4=C3[C@@H](c3ccc(N(C)C)cc3)C[C@@]21C [RU-486, reference compound] |  |  |  |  |  | 
